Paper PMC12298351, “Novel 3,19-(N-Phenyl-3-(4-fluorophenyl)-pyrazole) Acetal of Andrographolide Promotes Cell Cycle Arrest and Apoptosis in MDA-MB-231 Breast Cancer Cells” (Pharmaceuticals, 2025)

Tests used:
SW-620 = conditions: SW-620, Colon
DU-145 = conditions: DU-145, Prostate
SK-MEL-5 = conditions: SK-MEL-5, Melanoma
MCF7 = conditions: MCF7, Breast
BT-549 = assay type: cell-based; conditions: BT-549, Breast
786-0 = conditions: 786-0, Renal
MALME-3M = conditions: Melanoma
IGROV1 = conditions: IGROV1, Ovarian
SF-268 = conditions: SF-268, CNS
UO-31 = conditions: UO-31, Renal
SNB-75 = conditions: SNB-75, CNS
HT29 = conditions: HT29, Colon
COLO 205 = conditions: COLO 205, Colon
KM12 = conditions: KM12, Colon
MDA-MB-468 = conditions: MDA-MB-468, Breast
SK-OV-3 = conditions: SK-OV-3, Ovarian
SNB-19 = assay type: cell-based; conditions: SNB-19, CNS
CAKI-1 = conditions: CAKI-1, Renal
K-562 = conditions: K-562, Leukemia
OVCAR-5 = conditions: OVCAR-5, Ovarian
SK-MEL-28 = conditions: SK-MEL-28, Melanoma
[1] = read-out: 50% lethal concentration (LC50)
[2] = read-out: 50% lethal concentration (LC50), Renal

C=C1CCC2C3(C)COC(c4cn(-c5ccccc5)nc4-c4cccc(F)c4)OC3CCC2(C)C1CC=C1C(=O)OCC1O (stereo not shown) [1c]
GI50 (SW-620): 5.71 µM
Total growth inhibition (TGI) (SW-620): > 100 µM
CC50 (SW-620; [1]): > 100 µM
GI50 (DU-145): 1.97 µM
Total growth inhibition (TGI) (DU-145): 4.25 µM
CC50 (DU-145; [1]): 9.15 µM
GI50 (SK-MEL-5): 1.65 µM
Total growth inhibition (TGI) (SK-MEL-5): 3.02 µM
CC50 (SK-MEL-5; [1]): 5.51 µM
GI50 (MCF7): 1.63 µM
Total growth inhibition (TGI) (MCF7): 5.49 µM
CC50 (MCF7; [1]): 50.1 µM
GI50 (BT-549): 1.3 µM
Total growth inhibition (TGI) (BT-549): 3.01 µM
Total growth inhibition (TGI) (HOP-92; HOP-92, Non-Small Cell Lung): 3.03 µM
GI50 (HOP-92; HOP-92, Non-Small-Cell Lung): 1.53 µM
CC50 (HOP-92; read-out: 50% lethal concentration (LC50), HOP-92, Non-Small Cell Lung): 6.02 µM
GI50 (786-0): 1.78 µM
Total growth inhibition (TGI) (786-0): 3.59 µM
CC50 (786-0; [1]): 7.24 µM
GI50 (MALME-3M): 1.87 µM
Total growth inhibition (TGI) (MALME-3M): 3.5 µM
GI50 (IGROV1): 2.07 µM
Total growth inhibition (TGI) (IGROV1): 5.72 µM
CC50 (IGROV1; [1]): > 100 µM
GI50 (SF-268): 2.27 µM
Total growth inhibition (TGI) (SF-268): 5.61 µM
CC50 (SF-268; [1]): 28.4 µM
Total growth inhibition (TGI) (NCI-H460; NCI-H460, Non-Small Cell Lung): 3.59 µM
GI50 (NCI-H460; NCI-H460, Non-Small-Cell Lung): 1.81 µM
Total growth inhibition (TGI) (A549/ATCC; Non-Small Cell Lung): 25.3 µM
GI50 (A549/ATCC; Non-Small-Cell Lung): 3.88 µM
CC50 (A549/ATCC; read-out: 50% lethal concentration (LC50), Non-Small Cell Lung): > 100 µM
GI50 (UO-31): 1.78 µM
Total growth inhibition (TGI) (UO-31): 2.77 µM
CC50 (UO-31; [1]): 5.46 µM
GI50 (HS 578T; Breast): 1.66 µM
Total growth inhibition (TGI) (HS 578T; Breast): 3.18 µM
CC50 (HS 578T; read-out: 50% lethal concentration (LC50), Breast): 6.12 µM
Total growth inhibition (TGI) (SNB-75): 3.55 µM
CC50 (SNB-75; [1]): 5.82 µM
GI50 (SN12C; Renal): 1.59 µM
Total growth inhibition (TGI) (SN12C; Renal): 3.42 µM
CC50 (SN12C; [2]): 7.34 µM
GI50 (MDA-MB-231; MDA-MB-231, Breast): 1.72 µM
Total growth inhibition (TGI) (MDA-MB-231; MDA-MB-231/ATCC, Breast): 3.29 µM
CC50 (MDA-MB-231; read-out: 50% lethal concentration (LC50), MDA-MB-231/ATCC, Breast): 6.28 µM
GI50 (HT29): 1.7 µM
Total growth inhibition (TGI) (HT29): 4.51 µM
CC50 (HT29; [1]): > 100 µM
GI50 (COLO 205): 2.06 µM
Total growth inhibition (TGI) (COLO 205): 4.65 µM
GI50 (KM12): 2.26 µM
Total growth inhibition (TGI) (KM12): 4.47 µM
GI50 (MDA-MB-468): 1.63 µM
Total growth inhibition (TGI) (MDA-MB-468): 3.13 µM
CC50 (MDA-MB-468; [1]): 6.01 µM
GI50 (SK-OV-3): 2.7 µM
Total growth inhibition (TGI) (SK-OV-3): 6.09 µM
CC50 (SK-OV-3; [1]): > 100 µM
Total growth inhibition (TGI) (SNB-19): 2.72 µM
Total growth inhibition (TGI) (NCI-H226; NCI-H226, Non-Small Cell Lung): 3.19 µM
GI50 (NCI-H226; NCI-H226, Non-Small-Cell Lung): 1.67 µM
CC50 (NCI-H226; read-out: 50% lethal concentration (LC50), NCI-H226, Non-Small Cell Lung): 6.08 µM
GI50 (CAKI-1): 1.56 µM
Total growth inhibition (TGI) (CAKI-1): 3.09 µM
CC50 (CAKI-1; [1]): 6.13 µM
GI50 (LOX IMVI; Melanoma): 1.44 µM
Total growth inhibition (TGI) (LOX IMVI; Melanoma): 2.75 µM
CC50 (LOX IMVI; read-out: 50% lethal concentration (LC50), Melanoma): 5.25 µM
GI50 (NCI/ADR-RES; Ovarian): 1.77 µM
Total growth inhibition (TGI) (NCI/ADR-RES; Ovarian): 3.99 µM
CC50 (NCI/ADR-RES; read-out: 50% lethal concentration (LC50), Ovarian): 8.99 µM
GI50 (K-562): 2.14 µM
Total growth inhibition (TGI) (K-562): > 100 µM
CC50 (K-562; [1]): > 100 µM
GI50 (OVCAR-5): 1.92 µM
Total growth inhibition (TGI) (OVCAR-5): 4.61 µM
CC50 (OVCAR-5; [1]): 31 µM
GI50 (SK-MEL-28): 1.77 µM
Total growth inhibition (TGI) (SK-MEL-28): 3.35 µM
CC50 (SK-MEL-28; [1]): 6.36 µM
GI50 (ACHN; Renal): 1.8 µM
Total growth inhibition (TGI) (ACHN; Renal): 3.53 µM
CC50 (ACHN; [2]): 6.94 µM
